Results taken from BigSolDB 2.1.

CN(CCOc1ccc(CC2SC(=O)NC2=O)cc1)c1ccccn1 (configuration not stated)
solubility (mole fraction)
Details	in acetone	in acetonitrile	in ethanol	in ethyl acetate	in isopropanol	in methanol	in methyl acetate	in n-butanol	in n-butyl acetate	in n-propanol
283.15 K	0.00177	0.000267	0.000245	0.00123	0.00013	0.000139	0.00123	0.000341	0.000926	0.000276
293.15 K	0.00278	0.000453	0.000341	0.00205	0.000173	–	0.00205	0.000371	0.00117	0.00028
303.15 K	0.00455	0.000744	0.000458	0.003	0.000282	0.000444	0.00335	0.00042	0.00235	0.000323
313.15 K	0.00691	0.00126	0.00067	0.00441	0.000529	0.000745	0.0052	0.00063	0.00355	0.000741
323.15 K	0.00992	–	0.00124	0.00649	0.000992	0.00132	0.00795	0.00147	0.00505	0.00133
333.15 K	–	0.00352	0.00244	0.0118	0.00218	0.00235	0.0126	0.00293	0.0092	0.0029
